Laboratory results from patent publication US20030198662A1, “Transdermal administration of N-(2,5-disubstituted phenyl)-N'-(3-substituted phenyl)-N'-methyl guanidines” (priority 1999, published 2003).

Assay: Electrotransport drug flux in automated permeation cells (zero-current passive phase, then electrotransport phase)
Assay type: in vitro ADME
Conditions: aqueous donor solution about 15 mg/mL drug HCl salt, receptor Dulbecco's phosphate buffered saline pH 7.4
Procedure: Automated permeation cells used for passive permeation studies were also used for the assessment of electrotransport drug flux. The donor compartment contained the silver anode while the receptor compartment contained the silver chloride cathode. The electrodes were connected to a Maccor power source. An aqueous donor solution containing about 15 mg/mL of the drug HCl salt was utilized. The receptor solution was Dulbecco's phosphate buffered saline ([…]) pH 7.4. The first 16 hours served as a zero current passive phase after which the power source was turned on. The electrotransport phase during which a current of 0.2 mA was supplied (to result in a current density of 0.1 mA/cm^2) lasted 24 hours. Receptor solution was automatically collected every 4 hours during the passive phase and every hour during the electrotransport phase, and analyzed for drug by HPLC. Flux, as μg/cm^2h, was calculated, as was the average steady-state flux, which included data points where delivery had reached a nearly constant value.

CSc1cccc(N(C)C(=N)Nc2cc(SC)ccc2Cl)c1 [CNS 5161, N-(2-chloro-5-(methylthio)phenyl)-N′-(3-(methylthio)phenyl)-N′-methyl guanidine]
Average steady-state flux during electrotransport (current 0.2 mA, current density 0.1 mA/cm^2, 24 hours): 53±2.5 μg/cm^2h
Flux during zero-current passive phase (initial 16 hours, zero current): about 0.02 μg/cm^2h
